# Reference: patent publication US20230382889A1 (Volastra Therapeutics, Inc., priority 2022, published 2023)
# Target: hKIF18A (1-374) (Homo sapiens (Human), UniProt Q8NI77)
# Assay: Inhibition of KIF18A microtubule-dependent ATPase activity (ADP-Glo)
# Type: biochemical
# Settings: 4 nM hKIF18A (1-374)
# Procedure: Test compounds were plated in a 3× dilution scheme in a 384-well plate. Assay buffer: 80 mM PIPES (pH 6.9), 1 mM MgCl2, 75 mM KCl, 1 mM EGTA, 1 mM DTT, 0.01% BSA, 0.005% Tween-20, 1 μM Taxol in H2O. […] After incubation at room temperature for 30 min, 2.5 μL of microtubule mix was added [0.2 mg/mL pre-formed microtubules, 2.0 mM ATP in assay buffer], the plate was centrifuged for 30 s and then incubated at 28° C. for 60 min. 5 μL of Promega® ADP-Glo Max R1 was added, the plate was centrifuged for 30 s, and the mixture incubated for 4 h at room temperature. 10 μL of Promega® ADP-Glo Max R2 was added, the plate centrifuged for 30 s, and incubated for 60 min at room temperature. Luminescence was measured with an Envision plate reader, and % Inhibition was calculated for each well as: ([max−min]−[test−min])/[max−min]. IC50 values were calculated from concentration vs. % Inhibition data via a four-parameter variable slope model.
# Chain of hKIF18A (1-374) (Q8NI77 1-374): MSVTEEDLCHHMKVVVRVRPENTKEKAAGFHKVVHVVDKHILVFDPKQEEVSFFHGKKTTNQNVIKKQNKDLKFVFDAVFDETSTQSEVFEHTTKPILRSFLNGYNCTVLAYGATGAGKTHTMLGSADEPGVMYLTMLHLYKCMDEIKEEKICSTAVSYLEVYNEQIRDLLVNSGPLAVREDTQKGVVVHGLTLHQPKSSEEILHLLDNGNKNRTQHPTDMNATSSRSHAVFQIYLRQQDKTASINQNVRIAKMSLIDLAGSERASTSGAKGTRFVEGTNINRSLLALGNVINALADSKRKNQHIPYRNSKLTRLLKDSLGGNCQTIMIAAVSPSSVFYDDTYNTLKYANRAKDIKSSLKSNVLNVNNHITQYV
row,Compound,IC50
1,"O=S(=O)(CCO)Nc1cc(N2CCC3(CC2)CC3)c(-n2cc(-c3cncc(N4CCC(F)(F)CC4)n3)nn2)cc1F [Compound 144, N-(4-(4-(6-(4,4-difluoropiperidin-1-yl)pyrazin-2-yl)-1H-1,2,3-triazol-1-yl)-2-fluoro-5-(6-azaspiro[2.5]octan-6-yl)phenyl)-2-hydroxyethane-1-sulfonamide]",2.8 nM
2,"Cc1cc(-c2cn(-c3ccc(NS(=O)(=O)CCO)cc3N3CCC4(CC3)CC4)nn2)nc(N2C[C@@H](F)[C@H](F)C2)c1 [Compound 115, N-(4-(4-(6-((3R,4R)-3,4-difluoropyrrolidin-1-yl)-4-methylpyridin-2-yl)-1H-1,2,3-triazol-1-yl)-3-(6-azaspiro[2.5]octan-6-yl)phenyl)-2-hydroxyethane-1-sulfonamide]",44 nM
3,"O=S(=O)(CCO)Nc1ccc(-n2cc(-c3nc(N4CCC(F)(F)CC4)sc3F)nn2)c(N2CCC3(CC2)CC3)c1 [Compound 93, N-(4-(4-(2-(4,4-difluoropiperidin-1-yl)-5-fluorothiazol-4-yl)-1H-1,2,3-triazol-1-yl)-3-(6-azaspiro[2.5]octan-6-yl)phenyl)-2-hydroxyethane-1-sulfonamide]",10 nM
4,"CCS(=O)(=O)Nc1ccc(-n2cc(-c3cnc(C)c(N4CCC(F)(F)CC4)n3)nn2)c(N2CCC3(CC2)CC3)c1 [Compound 145, N-(4-(4-(6-(4,4-difluoropiperidin-1-yl)-5-methylpyrazin-2-yl)-1H-1,2,3-triazol-1-yl)-3-(6-azaspiro[2.5]octan-6-yl)phenyl)ethanesulfonamide]",17 nM
5,"O=S(=O)(CCO)Nc1ccc(-n2cc(-c3ccc(F)c(N4CCCCC4)n3)nn2)c(N2CCC3(CC2)CC3)c1 [Compound 136, N-(4-(4-(5-fluoro-6-(piperidin-1-yl)pyridin-2-yl)-1H-1,2,3-triazol-1-yl)-3-(6-azaspiro[2.5]octan-6-yl)phenyl)-2-hydroxyethane-1-sulfonamide]",6.5 nM
6,"CS(=O)(=O)Nc1ccc(-n2cc(-c3cccc(N4CCC(F)(F)CC4)n3)nn2)c(N2CCCCCC2)c1 [Compound 52, N-(3-(azepan-1-yl)-4-(4-(6-(4,4-difluoropiperidin-1-yl)pyridin-2-yl)-1H-1,2,3-triazol-1-yl)phenyl)methanesulfonamide]",18 nM
7,"CCS(=O)(=O)Nc1ccc(-n2cc(-c3cncc(N4CCC(F)(F)CC4)n3)nn2)c(N2CCC3(CC2)CC3)c1 [Compound 137, N-(4-(4-(6-(4,4-difluoropiperidin-1-yl)pyrazin-2-yl)-1H-1,2,3-triazol-1-yl)-3-(6-azaspiro[2.5]octan-6-yl)phenyl)ethanesulfonamide]",6.3 nM
8,"CCS(=O)(=O)Nc1ccc(-n2cc(-c3ccc(C(O)C4CCCC4)o3)nn2)c(N2CCC3(CC2)CC3)c1 (centres unmarked) [Compound 123, N-(4-(4-(5-(cyclopentyl(hydroxy)methyl)furan-2-yl)-1H-1,2,3-triazol-1-yl)-3-(6-azaspiro[2.5]octan-6-yl)phenyl)ethanesulfonamide]",4.6 nM
9,"N-(4-(4-(2-(cyclopentyloxy)-6-methylpyrimidin-4-yl)-1H-1,2,3-triazol-1-yl)-3-(6-azaspiro[2.5]octan-6-yl)phenyl)-2-hydroxyethane-1-sulfonamide [Compound 109]",8.8 nM
10,"O=S(=O)(Nc1ccc(-n2cc(-c3ccc(F)c(N4CCC(F)(F)CC4)n3)nn2)c(N2CCCCC2)c1)C1(CO)CC1 [Compound 157, N-(4-(4-(6-(4,4-difluoropiperidin-1-yl)-5-fluoropyridin-2-yl)-1H-1,2,3-triazol-1-yl)-3-(piperidin-1-yl)phenyl)-1-(hydroxymethyl)cyclopropane-1-sulfonamide]",21 nM
11,"O=S(=O)(CCO)Nc1ccc(-n2cc(-c3cc(F)cc(N4CCC(F)(F)CC4)n3)nn2)c(N2CCC3(CC2)CC3)c1 [Compound 78, N-(4-(4-(6-(4,4-difluoropiperidin-1-yl)-4-fluoropyridin-2-yl)-1H-1,2,3-triazol-1-yl)-3-(6-azaspiro[2.5]octan-6-yl)phenyl)-2-hydroxyethane-1-sulfonamide]",17 nM
12,"CS(=O)(=O)Nc1ccc(-n2cc(-c3nccc(N4CCC(F)(F)CC4)n3)cn2)c(N2CCC3(CC2)CC3)c1 [Compound 66, N-(4-(4-(4-(4,4-difluoropiperidin-1-yl)pyrimidin-2-yl)-1H-pyrazol-1-yl)-3-(6-azaspiro[2.5]octan-6-yl)phenyl)methanesulfonamide]",14 nM
13,"Cc1ncc(-c2cn(-c3ccc(NS(=O)(=O)CCO)cc3N3CCC4(CC3)CC4)nn2)nc1C1=CCCC1 [Compound 161, N-(4-(4-(6-(cyclopent-1-en-1-yl)-5-methylpyrazin-2-yl)-1H-1,2,3-triazol-1-yl)-3-(6-azaspiro[2.5]octan-6-yl)phenyl)-2-hydroxyethane-1-sulfonamide]",63 nM
14,"CS(=O)(=O)Nc1ccc(-n2cc(-c3cccc(N4CCC(F)(F)CC4)n3)nn2)c(N2CCC(C(F)(F)F)CC2)c1 [Compound 20, N-(4-(4-(6-(4,4-difluoropiperidin-1-yl)pyridin-2-yl)-1H-1,2,3-triazol-1-yl)-3-(4-(trifluoromethyl)piperidin-1-yl)phenyl)methanesulfonamide]",23 nM
15,"CS(=O)(=O)Nc1ccc(-n2cc(-c3ccc(F)c(N4CCC(F)(F)CC4)n3)nn2)c(N2CCC3(CC2)CC3)c1 [Compound 149, N-(4-(4-(6-(4,4-difluoropiperidin-1-yl)-5-fluoropyridin-2-yl)-1H-1,2,3-triazol-1-yl)-3-(6-azaspiro[2.5]octan-6-yl)phenyl)methanesulfonamide]",21 nM
16,"CCS(=O)(=O)Nc1ccc(-n2cc(-c3ccc(F)c(N4CCC(F)(F)CC4)n3)nn2)c(N2CCC3(CC2)CC3)c1 [Compound 148, N-(4-(4-(6-(4,4-difluoropiperidin-1-yl)-5-fluoropyridin-2-yl)-1H-1,2,3-triazol-1-yl)-3-(6-azaspiro[2.5]octan-6-yl)phenyl)ethanesulfonamide]",31 nM
17,"O=S(=O)(CCO)Nc1ccc(-n2cc(-c3ccc(F)c(C4=CCC(F)(F)CC4)n3)nn2)c(N2CCC3(CC2)CC3)c1 [Compound 162, N-(4-(4-(6-(4,4-difluorocyclohex-1-en-1-yl)-5-fluoropyridin-2-yl)-1H-1,2,3-triazol-1-yl)-3-(6-azaspiro[2.5]octan-6-yl)phenyl)-2-hydroxyethane-1-sulfonamide]",20 nM
18,"CS(=O)(=O)Nc1ccc(-c2cnc(-c3cccc(N4CCOCC4)n3)[nH]2)c(N2CCC3(CC2)CC3)c1 [Compound 27, N-(4-(2-(6-morpholinopyridin-2-yl)-1H-imidazol-5-yl)-3-(6-azaspiro[2.5]octan-6-yl)phenyl)methanesulfonamide]",> 3000 nM
19,"CS(=O)(=O)Nc1ccc(-n2cc(-c3ccn(C4CCC(F)(F)CC4)n3)nn2)c(N2CCC3(CC2)CC3)c1 [Compound 41, N-(4-(4-(1-(4,4-difluorocyclohexyl)-1H-pyrazol-3-yl)-1H-1,2,3-triazol-1-yl)-3-(6-azaspiro[2.5]octan-6-yl)phenyl)methanesulfonamide]",16 nM
20,"CCS(=O)(=O)Nc1ccc(-n2cc(-c3ccc(F)c(S(=O)(=O)NC(C)(C)C)c3)nn2)c(N2CCC3(CC2)CC3)c1 [Compound 120, N-(tert-butyl)-5-(1-(4-(ethylsulfonamido)-2-(6-azaspiro[2.5]octan-6-yl)phenyl)-1H-1,2,3-triazol-4-yl)-2-fluorobenzenesulfonamide]",19 nM
21,"O=S(=O)(CCO)Nc1ccc(-n2cc(-c3ccc(C(O)C4CCCC4)o3)nn2)c(N2CCC3(CC2)CC3)c1 (single isomer, unassigned) [Compound 51b]",3.1 nM
22,"O=S(=O)(CCO)Nc1ccc(-n2cc(-c3nc(C4=CCC(F)(F)CC4)ccc3F)nn2)c(N2CCC3(CC2)CC3)c1 [Compound 159, N-(4-(4-(6-(4,4-difluorocyclohex-1-en-1-yl)-3-fluoropyridin-2-yl)-1H-1,2,3-triazol-1-yl)-3-(6-azaspiro[2.5]octan-6-yl)phenyl)-2-hydroxyethane-1-sulfonamide]",14 nM
23,"O=S(=O)(CCO)Nc1ccc(-n2cc(-c3ccc(C4=CCCC4)o3)nn2)c(N2CCC3(CC2)CC3)c1 [Compound 125, N-(4-(4-(5-(cyclopent-1-en-1-yl)furan-2-yl)-1H-1,2,3-triazol-1-yl)-3-(6-azaspiro[2.5]octan-6-yl)phenyl)-2-hydroxyethane-1-sulfonamide]",9 nM
24,"O=S(=O)(CCO)Nc1ccc(-c2cn(-c3ccc(F)c(S(=O)(=O)N4CC(F)(F)C4)c3)nn2)c(N2CCC3(CC2)CC3)c1 [Compound 129, N-(4-(1-(3-((3,3-difluoroazetidin-1-yl)sulfonyl)-4-fluorophenyl)-1H-1,2,3-triazol-4-yl)-3-(6-azaspiro[2.5]octan-6-yl)phenyl)-2-hydroxyethane-1-sulfonamide]",14 nM
25,"Cc1cc(-c2cn(-c3ccc(NS(=O)(=O)CCO)cc3N3CCC4(CC4)C3)nn2)nc(N2CCC(F)(F)CC2)n1 [Compound 88, N-(4-(4-(2-(4,4-difluoropiperidin-1-yl)-6-methylpyrimidin-4-yl)-1H-1,2,3-triazol-1-yl)-3-(5-azaspiro[2.4]heptan-5-yl)phenyl)-2-hydroxyethane-1-sulfonamide]",120 nM
26,"O=S(=O)(CCO)Nc1ccc(-c2cn(-c3ccc(F)c(N4CCCCC4)n3)nn2)c(N2CCC3(CC2)CC3)c1 [Compound 147, N-(4-(1-(5-fluoro-6-(piperidin-1-yl)pyridin-2-yl)-1H-1,2,3-triazol-4-yl)-3-(6-azaspiro[2.5]octan-6-yl)phenyl)-2-hydroxyethane-1-sulfonamide]",22 nM
